# In ChEMBL document CHEMBL3232829, “Synthesis and multitarget biological profiling of a novel family of rhein derivatives as disease-modifying anti-Alzheimer agents” (J Med Chem, 2014):
# Active and inactive are the calls of the source. The calls are words filed in the database; no cut-off is given here.
# Molecular target: Acetylcholinesterase (Homo sapiens, UniProt P22303)
# Conditions: not given
# Sequence of Acetylcholinesterase (P22303 whole entry): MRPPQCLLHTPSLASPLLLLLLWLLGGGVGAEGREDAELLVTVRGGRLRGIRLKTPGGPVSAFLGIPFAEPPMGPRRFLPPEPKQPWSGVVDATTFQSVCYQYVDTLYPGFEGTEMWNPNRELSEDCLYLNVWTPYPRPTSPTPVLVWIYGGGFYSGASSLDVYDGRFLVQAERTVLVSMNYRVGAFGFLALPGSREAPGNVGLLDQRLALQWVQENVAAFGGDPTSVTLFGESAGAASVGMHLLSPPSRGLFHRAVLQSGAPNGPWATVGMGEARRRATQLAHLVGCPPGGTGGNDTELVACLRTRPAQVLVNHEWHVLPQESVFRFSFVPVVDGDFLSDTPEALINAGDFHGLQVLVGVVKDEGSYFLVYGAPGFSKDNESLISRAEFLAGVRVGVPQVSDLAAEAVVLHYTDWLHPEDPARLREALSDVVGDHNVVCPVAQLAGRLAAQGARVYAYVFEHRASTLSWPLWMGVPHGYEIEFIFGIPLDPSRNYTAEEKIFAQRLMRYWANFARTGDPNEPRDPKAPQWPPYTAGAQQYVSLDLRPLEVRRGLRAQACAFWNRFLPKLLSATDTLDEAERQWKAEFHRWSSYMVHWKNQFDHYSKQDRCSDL
row,SMILES,IC50
1,O=C(O)c1cc(O)c2c(c1)C(=O)c1cccc(O)c1C2=O [RHEIN],> 10 µM

# System: Hippocampus
# Assay: Neuroprotective activity against amyloid beta-42-induced synaptic failure in C57bl6 mouse hippocampal slices assessed as increase of VGlut1 protein level at 1 to 100 uM uM after 1 hr by Western blot analysis
# Assay type: functional, tissue-based
# Conditions: not given
row,SMILES,Activity
1,CC1=C[C@H]2Cc3nc4cc(Cl)ccc4c(NCCCCCCCCCNC(=O)c4cc(O)c5c(c4)C(=O)c4cccc(O)c4C5=O)c3[C@@H](C1)C2.Cl,inactive
2,CC1=C[C@@H]2Cc3nc4cc(Cl)ccc4c(NCCCCCCCCCNC(=O)c4cc(O)c5c(c4)C(=O)c4cccc(O)c4C5=O)c3[C@H](C1)C2,Active

# System: Hippocampus
# Assay: Neuroprotective activity against amyloid beta-42-induced synaptic failure in C57bl6 mouse hippocampal slices assessed as increase of PSD95 protein level at 1 to 100 uM uM after 1 hr by Western blot analysis
# Assay type: functional, tissue-based
# Conditions: not given
row,SMILES,Activity
1,CC1=C[C@H]2Cc3nc4cc(Cl)ccc4c(NCCCCCCCCCNC(=O)c4cc(O)c5c(c4)C(=O)c4cccc(O)c4C5=O)c3[C@@H](C1)C2.Cl,Active

# System: Hippocampus
# Assay: Neuroprotective activity against amyloid beta-42-induced synaptic failure in C57bl6 mouse hippocampal slices assessed as increase of GluA2 protein level at 10 to 100 uM uM after 1 hr by Western blot analysis
# Assay type: functional, tissue-based
# Conditions: not given
row,SMILES,Activity
1,CC1=C[C@@H]2Cc3nc4cc(Cl)ccc4c(NCCCCCCCCCNC(=O)c4cc(O)c5c(c4)C(=O)c4cccc(O)c4C5=O)c3[C@H](C1)C2,Active

# System: Mus musculus
# Assay: Antialzheimer activity in APP-PS1 transgenic 7 month old mouse hippocampus assessed as reduction of dodecamer of amyloid beta level at 2 mg/kg, ip administered 3 times in a week for 4 weeks by immunoblot analysis
# Assay type: functional, organism-based
# Design: dose 2 mg/kg
# Conditions: not given
row,SMILES,Activity
1,CC1=C[C@H]2Cc3nc4cc(Cl)ccc4c(NCCCCCCCCCNC(=O)c4cc(O)c5c(c4)C(=O)c4cccc(O)c4C5=O)c3[C@@H](C1)C2.Cl,Active
2,CC1=C[C@@H]2Cc3nc4cc(Cl)ccc4c(NCCCCCCCCCNC(=O)c4cc(O)c5c(c4)C(=O)c4cccc(O)c4C5=O)c3[C@H](C1)C2,Active

# System: Hippocampus
# Assay: Neuroprotective activity against amyloid beta-42-induced synaptic failure in C57bl6 mouse hippocampal slices assessed as induction of field excitatory postsynaptic potential at 10 uM after 1 hr by electrophysiology assay relative to control
# Assay type: functional
# Conditions: not given
row,SMILES,Activity
1,CC1=C[C@H]2Cc3nc4cc(Cl)ccc4c(NCCCCCCCCCNC(=O)c4cc(O)c5c(c4)C(=O)c4cccc(O)c4C5=O)c3[C@@H](C1)C2.Cl,200%
2,CC1=C[C@@H]2Cc3nc4cc(Cl)ccc4c(NCCCCCCCCCNC(=O)c4cc(O)c5c(c4)C(=O)c4cccc(O)c4C5=O)c3[C@H](C1)C2,inactive

# System: Hippocampus
# Assay: Neuroprotective activity against amyloid beta-42-induced synaptic failure in C57bl6 mouse hippocampal slices assessed as increase of PSD95 protein level at 10 to 100 uM uM after 1 hr by Western blot analysis
# Assay type: functional, tissue-based
# Conditions: not given
row,SMILES,Activity
1,CC1=C[C@@H]2Cc3nc4cc(Cl)ccc4c(NCCCCCCCCCNC(=O)c4cc(O)c5c(c4)C(=O)c4cccc(O)c4C5=O)c3[C@H](C1)C2,Active

# Molecular target: T1, Beta-secretase 1 (Homo sapiens, UniProt P56817)
# Conditions: 5 uM
# T1 sequence (P56817 whole entry): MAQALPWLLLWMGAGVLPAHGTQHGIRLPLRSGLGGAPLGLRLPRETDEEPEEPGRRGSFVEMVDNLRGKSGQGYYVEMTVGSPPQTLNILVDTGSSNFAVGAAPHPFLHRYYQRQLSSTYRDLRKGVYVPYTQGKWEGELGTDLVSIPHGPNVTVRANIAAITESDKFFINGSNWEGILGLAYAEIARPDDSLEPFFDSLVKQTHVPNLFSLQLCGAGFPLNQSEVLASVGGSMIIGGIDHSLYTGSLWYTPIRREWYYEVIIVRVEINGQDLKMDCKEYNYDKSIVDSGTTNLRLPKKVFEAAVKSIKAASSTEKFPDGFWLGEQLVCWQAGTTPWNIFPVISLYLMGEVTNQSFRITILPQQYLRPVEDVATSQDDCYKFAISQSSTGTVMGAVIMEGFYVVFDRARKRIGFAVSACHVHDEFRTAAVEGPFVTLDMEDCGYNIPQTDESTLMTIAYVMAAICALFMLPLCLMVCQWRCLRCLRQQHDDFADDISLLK
row,inhibition,SMILES
1,14%,CC1=C[C@@H]2Cc3nc4cc(Cl)ccc4c(N)c3[C@H](C1)C2

# Molecular target: Microtubule-associated protein tau (Homo sapiens) (UniProt P10636)
# Assay: Inhibition of aggregation of tau protein (unknown origin) expressed in Escherichia coli BL21 (DE3) assessed as amyloid fibril formation at 10 uM after 24 hrs by thioflavin S fluorescence method
# Conditions: not given
# Sequence of Microtubule-associated protein tau (Homo sapiens) (P10636 whole entry): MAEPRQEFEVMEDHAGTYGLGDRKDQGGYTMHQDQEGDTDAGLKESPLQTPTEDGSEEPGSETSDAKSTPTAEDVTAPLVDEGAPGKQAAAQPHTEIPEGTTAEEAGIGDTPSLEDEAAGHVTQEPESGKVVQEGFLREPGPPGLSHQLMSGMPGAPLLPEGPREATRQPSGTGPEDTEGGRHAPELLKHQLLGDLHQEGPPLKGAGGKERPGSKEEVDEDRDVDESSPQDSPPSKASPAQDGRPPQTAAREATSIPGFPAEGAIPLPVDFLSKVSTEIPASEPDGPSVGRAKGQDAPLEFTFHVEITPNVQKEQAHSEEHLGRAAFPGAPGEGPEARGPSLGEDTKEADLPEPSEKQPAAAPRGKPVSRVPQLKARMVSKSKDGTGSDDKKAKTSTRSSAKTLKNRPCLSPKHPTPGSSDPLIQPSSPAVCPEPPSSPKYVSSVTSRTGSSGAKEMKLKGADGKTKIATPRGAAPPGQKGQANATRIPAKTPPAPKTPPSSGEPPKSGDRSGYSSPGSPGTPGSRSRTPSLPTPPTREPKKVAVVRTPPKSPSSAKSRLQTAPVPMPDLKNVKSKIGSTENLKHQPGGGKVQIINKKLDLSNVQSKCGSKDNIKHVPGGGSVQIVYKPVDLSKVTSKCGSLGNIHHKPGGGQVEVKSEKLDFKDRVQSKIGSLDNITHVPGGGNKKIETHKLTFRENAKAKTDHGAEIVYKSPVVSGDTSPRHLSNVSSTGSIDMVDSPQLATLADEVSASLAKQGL
row,inhibition,SMILES
1,24.9%,CC1=C[C@H]2Cc3nc4cc(Cl)ccc4c(NCCCCCCCCCNC(=O)c4cc(O)c5c(c4)C(=O)c4cccc(O)c4C5=O)c3[C@@H](C1)C2.Cl
2,34.3%,CC1=C[C@@H]2Cc3nc4cc(Cl)ccc4c(NCCCCCCCCCNC(=O)c4cc(O)c5c(c4)C(=O)c4cccc(O)c4C5=O)c3[C@H](C1)C2

row,SMILES,inhibition
1,O=C(O)c1cc(O)c2c(c1)C(=O)c1cccc(O)c1C2=O [RHEIN],40.8%

# Molecular target: Amyloid-beta precursor protein (Homo sapiens) (UniProt P05067)
# Assay: Inhibition of aggregation of amyloid beta-42 (unknown origin) expressed in Escherichia coli BL21 (DE3) assessed as amyloid fibril formation at 10 uM after 24 hrs by thioflavin S fluorescence method
# Conditions: not given
# Sequence of Amyloid-beta precursor protein (Homo sapiens) (P05067 whole entry): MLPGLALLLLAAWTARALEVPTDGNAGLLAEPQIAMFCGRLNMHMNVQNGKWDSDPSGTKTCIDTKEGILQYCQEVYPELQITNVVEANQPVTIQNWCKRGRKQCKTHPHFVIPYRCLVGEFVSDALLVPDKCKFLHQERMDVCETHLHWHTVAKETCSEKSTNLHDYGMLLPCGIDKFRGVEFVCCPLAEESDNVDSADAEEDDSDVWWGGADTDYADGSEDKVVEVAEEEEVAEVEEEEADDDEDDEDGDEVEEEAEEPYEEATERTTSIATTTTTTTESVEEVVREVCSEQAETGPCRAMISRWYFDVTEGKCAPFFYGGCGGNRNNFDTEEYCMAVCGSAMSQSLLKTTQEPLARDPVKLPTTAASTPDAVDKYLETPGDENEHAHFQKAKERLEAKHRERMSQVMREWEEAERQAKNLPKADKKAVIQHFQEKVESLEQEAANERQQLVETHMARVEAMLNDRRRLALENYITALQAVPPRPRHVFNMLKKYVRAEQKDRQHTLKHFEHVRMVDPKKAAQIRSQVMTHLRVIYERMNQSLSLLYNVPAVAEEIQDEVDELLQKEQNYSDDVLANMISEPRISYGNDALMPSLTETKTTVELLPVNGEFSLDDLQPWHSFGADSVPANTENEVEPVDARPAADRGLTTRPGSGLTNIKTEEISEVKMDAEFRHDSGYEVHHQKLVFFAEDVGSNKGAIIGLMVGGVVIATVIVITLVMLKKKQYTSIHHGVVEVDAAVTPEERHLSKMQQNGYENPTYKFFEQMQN
row,inhibition,SMILES
1,58.6%,CC1=C[C@H]2Cc3nc4cc(Cl)ccc4c(NCCCCCCCCCNC(=O)c4cc(O)c5c(c4)C(=O)c4cccc(O)c4C5=O)c3[C@@H](C1)C2.Cl
2,47.2%,CC1=C[C@@H]2Cc3nc4cc(Cl)ccc4c(NCCCCCCCCCNC(=O)c4cc(O)c5c(c4)C(=O)c4cccc(O)c4C5=O)c3[C@H](C1)C2

row,SMILES,inhibition
1,O=C(O)c1cc(O)c2c(c1)C(=O)c1cccc(O)c1C2=O [RHEIN],49.9%

# System: not listed separately
# Assay: Permeability of the compound by PAMPA assay
# Assay type: physicochemical
# Conditions: read-out: permeability
row,SMILES,Papp
1,CC1=C[C@@H]2Cc3nc4cc(Cl)ccc4c(N)c3[C@H](C1)C2,23.6 ×10⁻⁶ cm/s
2,O=C(O)c1cc(O)c2c(c1)C(=O)c1cccc(O)c1C2=O [RHEIN],2.7 ×10⁻⁶ cm/s

# System: Hippocampus
# Assay: Neuroprotective activity against amyloid beta-42-induced synaptic failure in C57bl6 mouse hippocampal slices assessed as induction of long-term potentiation at 10 uM after 1 hr by electrophysiology assay relative to control
# Assay type: functional
# Conditions: not given
row,SMILES,Activity
1,CC1=C[C@H]2Cc3nc4cc(Cl)ccc4c(NCCCCCCCCCNC(=O)c4cc(O)c5c(c4)C(=O)c4cccc(O)c4C5=O)c3[C@@H](C1)C2.Cl,200%
2,CC1=C[C@@H]2Cc3nc4cc(Cl)ccc4c(NCCCCCCCCCNC(=O)c4cc(O)c5c(c4)C(=O)c4cccc(O)c4C5=O)c3[C@H](C1)C2,inactive

# System: Mus musculus
# Assay: Antialzheimer activity in APP-PS1 transgenic 11 month old mouse hippocampus assessed as reduction of hexamers of amyloid beta level at 2 mg/kg, ip administered 3 times in a week for 4 weeks by immunoblot analysis
# Assay type: functional, organism-based
# Design: dose 2 mg/kg
# Conditions: not given
row,SMILES,Activity
1,CC1=C[C@@H]2Cc3nc4cc(Cl)ccc4c(NCCCCCCCCCNC(=O)c4cc(O)c5c(c4)C(=O)c4cccc(O)c4C5=O)c3[C@H](C1)C2,inactive

# Molecular target: T1, Beta-secretase 1
# Assay: Inhibition of human recombinant BACE1 using methoxycoumarin-Ser-Glu-Val-Asn-Leu-Asp-Ala-Glu-Phe-Lys-dinitrophenyl as substrate preincubated for 1 hr by FRET assay
# Conditions: not given
row,SMILES,IC50
1,O=C(O)c1cc(O)c2c(c1)C(=O)c1cccc(O)c1C2=O [RHEIN],Not Active

# Same assay, conditions: read-out: IC50
row,IC50,SMILES
1,> 5 µM,CC1=C[C@@H]2Cc3nc4cc(Cl)ccc4c(N)c3[C@H](C1)C2

# System: Hippocampus
# Assay: Neuroprotective activity against amyloid beta-42-induced synaptic failure in C57bl6 mouse hippocampal slices assessed as increase of GluA2 protein level at 1 to 100 uM uM after 1 hr by Western blot analysis
# Assay type: functional, tissue-based
# Conditions: not given
row,SMILES,Activity
1,CC1=C[C@H]2Cc3nc4cc(Cl)ccc4c(NCCCCCCCCCNC(=O)c4cc(O)c5c(c4)C(=O)c4cccc(O)c4C5=O)c3[C@@H](C1)C2.Cl,Active

# System: Hippocampus
# Assay: Neuroprotective activity against amyloid beta-42-induced synaptic failure in C57bl6 mouse hippocampal slices assessed as increase of SYP protein level at 1 to 100 uM uM after 1 hr by Western blot analysis
# Assay type: functional, tissue-based
# Conditions: not given
row,SMILES,Activity
1,CC1=C[C@H]2Cc3nc4cc(Cl)ccc4c(NCCCCCCCCCNC(=O)c4cc(O)c5c(c4)C(=O)c4cccc(O)c4C5=O)c3[C@@H](C1)C2.Cl,inactive
2,CC1=C[C@@H]2Cc3nc4cc(Cl)ccc4c(NCCCCCCCCCNC(=O)c4cc(O)c5c(c4)C(=O)c4cccc(O)c4C5=O)c3[C@H](C1)C2,inactive

# Molecular target: Amyloid-beta precursor protein (Homo sapiens) (UniProt P05067)
# Assay: Inhibition of amyloid beta-42 (unknown origin) aggregation assessed as amyloid fibril formation at 10 uM after 24 hrs by thioflavin T fluorescence method
# Conditions: not given
row,inhibition,SMILES
1,11.5%,CC1=C[C@@H]2Cc3nc4cc(Cl)ccc4c(N)c3[C@H](C1)C2
2,38.4%,CC1=C[C@H]2Cc3nc4cc(Cl)ccc4c(NCCCCCCCCCNC(=O)c4cc(O)c5c(c4)C(=O)c4cccc(O)c4C5=O)c3[C@@H](C1)C2.Cl
3,43.2%,CC1=C[C@@H]2Cc3nc4cc(Cl)ccc4c(NCCCCCCCCCNC(=O)c4cc(O)c5c(c4)C(=O)c4cccc(O)c4C5=O)c3[C@H](C1)C2

# System: Hippocampus
# Assay: Neuroprotective activity against amyloid beta-42-induced synaptic failure in C57bl6 mouse hippocampal slices assessed as increase of SYN protein level at 1 to 100 uM uM after 1 hr by Western blot analysis
# Assay type: functional, tissue-based
# Conditions: not given
row,SMILES,Activity
1,CC1=C[C@H]2Cc3nc4cc(Cl)ccc4c(NCCCCCCCCCNC(=O)c4cc(O)c5c(c4)C(=O)c4cccc(O)c4C5=O)c3[C@@H](C1)C2.Cl,Active
2,CC1=C[C@@H]2Cc3nc4cc(Cl)ccc4c(NCCCCCCCCCNC(=O)c4cc(O)c5c(c4)C(=O)c4cccc(O)c4C5=O)c3[C@H](C1)C2,inactive

# System: Mus musculus
# Assay: Antialzheimer activity in APP-PS1 transgenic 11 month old mouse hippocampus assessed as reduction of dodecamer of amyloid beta level at 2 mg/kg, ip administered 3 times in a week for 4 weeks by immunoblot analysis
# Assay type: functional, organism-based
# Design: dose 2 mg/kg
# Conditions: not given
row,SMILES,Activity
1,CC1=C[C@H]2Cc3nc4cc(Cl)ccc4c(NCCCCCCCCCNC(=O)c4cc(O)c5c(c4)C(=O)c4cccc(O)c4C5=O)c3[C@@H](C1)C2.Cl,Active
2,CC1=C[C@@H]2Cc3nc4cc(Cl)ccc4c(NCCCCCCCCCNC(=O)c4cc(O)c5c(c4)C(=O)c4cccc(O)c4C5=O)c3[C@H](C1)C2,Active

# System: Mus musculus
# Assay: Antialzheimer activity in APP-PS1 transgenic 7 month old mouse hippocampus assessed as reduction of hexamers of amyloid beta level at 2 mg/kg, ip administered 3 times in a week for 4 weeks by immunoblot analysis
# Assay type: functional, organism-based
# Design: dose 2 mg/kg
# Conditions: not given
row,SMILES,Activity
1,CC1=C[C@H]2Cc3nc4cc(Cl)ccc4c(NCCCCCCCCCNC(=O)c4cc(O)c5c(c4)C(=O)c4cccc(O)c4C5=O)c3[C@@H](C1)C2.Cl,Active
2,CC1=C[C@@H]2Cc3nc4cc(Cl)ccc4c(NCCCCCCCCCNC(=O)c4cc(O)c5c(c4)C(=O)c4cccc(O)c4C5=O)c3[C@H](C1)C2,Active
